Columns and labels:
[1] = target: T1, nLucOGG1 in HeLa cells (Homo sapiens, UniProt O15527); assay: Cellular Thermal Shift Assay to measure compound affinity for nLucOGG1 in HeLa cells (CETSA DTm); assay type: cell-based; details: 10 μM compound, 37° C. 60 min, Tm vs DMSO control
T1 construct: thermal shift read by NanoGlo luminescence
Method: Biological Example 2: Cellular Thermal Shift Assay to Measure Compound Affinity for ^nLucOGG1 in HeLa Cells (CETSA DTm)
Cell Culture and Transfection of Hela Cells with ^nLucOGG1: For all tests, Hela cells were maintained in growth medium, Dulbecco's Minimum Eagle Medium (Multicell: Cat #319-005-CL) supplemented with 10% heat-inactivated fetal bovine serum (Gibco: Cat #12484-028) at 37° C. and 5% CO2 in a humidified tissue culture incubator. Transient transfections were performed using the Lonza 4-D Nucleofector X unit according to the manufacturer's protocol (Lonza Cat #V4XC-1024). Briefly, for each transfection, 1.2×10^6 cells were centrifuged at 1000 RPM for 5 minutes at room temperature before being diluted in 100 μL SE solution containing 18% v/v supplement and 1.5 μg pNF1-N-empty or pNF1-N-OGG1a vector. The total volume was transferred to a 100 μL nucleofection cuvette prior to transfer to the apparatus where HeLa cell nucleofection protocol CN-114 was executed. Following nucleofection, 500 μL complete media was added to the cells in the cuvette before transferring to a 6-well dish containing 1.5 mL of complete media. Cells were left to incubate for 48 hours before performing all cellular thermal shift experiments.
Cellular Thermal Shift Assays for Target Engagement (CETSA): Forty-eight hours following nucleofection, cells were washed once with DPBS−/−(Multicell: Cat #311-425-CL) and lifted with 0.25% Trypsin-EDTA (Multicell: Cat #325-043-CL) prior to dilution in growth medium and centrifugation at 1000 RPM for 5 minutes at room temperature. The resulting cell pellet was then resuspended in growth medium, cells were counted and the volume adjusted to 500 k cells/mL (2×).
For delta Tm determination, OGG1 inhibitor compounds were dissolved in DMSO to a final working concentration of 20 mM. Working solutions were then diluted in complete media to 20 μM or 0.1% DMSO for the vehicle control (2×). 2×OGG1 inhibitor compound solutions or 0.1% DMSO control were then pre-dispensed into MicroAmp Optical 96-well PCR reaction plates (Applied Biosystems: Cat #4346906) at 50 μL/well. Next, 50 μL or 25 k cells/well from the 2× cell suspension was added to the pre-loaded PCR plates. All plates were prepared as duplicates, covered with adhesive plate sealers (Perkin Elmer: Cat #6050185) and left to incubate at 37° C. for 60 minutes. During incubation, sufficient NanoGlo luciferase assay reagents (Promega: Cat #N1120) were left to equilibrate to room temperature in the dark. Immediately before heating the plates, the NanoGlo substrate was mixed with the NanoGlo buffer at a 1:50 ratio. The thermal cycler (Veriti 96-Well Thermal Cycler, Thermo Fisher Scientific) was allowed to reach the designated temperature prior to placement of the PCR plate into the heating block. For Tm determination experiments, duplicate plates containing a fixed concentration of test compound (10 μM final) as well as vehicle control were prepared to perform a 12-point temperature gradient spanning 37-70° C. for 3 minutes. Therefore, two thermal cycler protocols were set up covering two 6-step temperature gradients ranging from 37-52° C. and 52-70° C. Plates were then allowed to cool at room temperature for 5 minutes after the heat treatment followed by transfer of 75 μL of the reaction into a 96-well white polystyrene microplate (Corning: Cat #CLS3903) and addition of 75 μL of the prepared NanoGlo mixture. Microplates were then left to shake in the dark for 5 minutes before total luminescence was measured on a SpectraMax IX3 plate reader. The luminescence value obtained at each temperature was normalized to the luminescence obtained at 37° C. and the ratio obtained was plotted against the temperature. A Boltzman Sigmoidal non-linear regression was applied to the resulting data to determine Tm values and the difference between the Tm value for a given OGG1 inhibitor relative to the DMSO vehicle control was the delta Tm.

[2] = target: T2, hOGG1 (Homo sapiens, UniProt O15527); assay: Surface Plasma Resonance with hOGG1 to measure compound affinity (OGG1 SPR Kd); assay type: binding; set-up: Protein His-hOGG1 (12-323) was prepared; details: Biacore T-200, immobilized his-tagged OGG1; pH 7.4; 2% DMSO; single-cycle kinetics
T2 sequence (O15527 12-323): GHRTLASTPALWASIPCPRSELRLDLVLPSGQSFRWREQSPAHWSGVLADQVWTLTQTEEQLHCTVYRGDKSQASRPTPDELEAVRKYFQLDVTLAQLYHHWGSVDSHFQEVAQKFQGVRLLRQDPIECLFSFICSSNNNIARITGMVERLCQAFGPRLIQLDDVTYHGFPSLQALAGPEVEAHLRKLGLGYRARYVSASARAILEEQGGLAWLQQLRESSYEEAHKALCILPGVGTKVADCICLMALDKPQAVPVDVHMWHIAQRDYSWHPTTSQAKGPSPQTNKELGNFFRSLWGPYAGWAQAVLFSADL
Method: Surface Plasma Resonance with hOGG1 to Measure Compound Affinity (OGG1 SPR Kd); All the SPR studies were performed on a Biacore T-200 instrument (Cytiva life sciences) using series S NTA sensor chip (cat #BR-1005-32, Cytiva life sciences). Recombinant his-tagged OGG1 (mol. wt. 36003; ChemPartner, Shanghai, China) was immobilized on NTA sensor chip via Ni^2+/NTA chelation using NTA reagent kit (Cytiva life sciences; cat #289950) as per manufacturer's recommended protocol. The running buffer during immobilization contained HEPES (20 mM, pH 7.4), 150 mM NaCl, 0.5 mM TCEP (tris(2-carboxyethyl)phosphine), and 0.005% Tween-20. NTA sensor chip (experimental cell) was first conditioned by injecting regeneration solution (350 mM EDTA, flow rate 30 μL/min, 2 injections 60 each). Additional wash with 50 mM NaOH was used whenever the chip was regenerated (flow rate 30 μL/min, 1 injection of 60 s). The sensor chip was then activated with 0.5 mM NiCl2 (flow rate 10 μL/min, 2 injection of 60 s, leading to a baseline increase of ~40 RU), and the excess Ni^2+ was removed using immobilization buffer containing 3 mM EDTA (flow rate 10 μL/min, 1 injection of 60 s). Finally, OGG1 (diluted to 6.2 μg/mL in running buffer) was injected on the activated sensor chip at a flow rate of 10 μL/min until immobilization level reached ~6000 RU. Any loosely bound protein was removed by passing the immobilization buffer overnight at 20 μL/min. At this point, the drift in baseline was ~0.01 RU/s and the final immobilization level was ~2500 RU. Reference cell was left untreated. SPR binding experiments were performed using binding buffer (20 mM HEPES (pH 7.4), 150 mM NaCl, 0.5 mM TCEP, 0.005% Tween-20, and 2% DMSO) at a flow rate of 30 μL/min. Single-cycle kinetics approach was used for binding analysis which consisted of sequential injections of increasing concentrations of test compound (a 3-fold serial dilution with 5 concentrations; highest 750 or 1500 nM; with final DMSO concentration at 2%) over the immobilized protein without regeneration step between each sample injection. Each injection was 45 seconds long (contact time), followed by a final dissociation of 600 sec. The Biacore T-200 Evaluation software 3.1 (GE Healthcare) was used to determine kinetic parameters from SPR data. All the reported sensograms were reference subtracted and corrected for refractive index contributions from solvent using 8-point solvent correction (1.4 to 2.8% DMSO in binding buffer). Data were fit to both steady state and 1:1 kinetic model to obtain Kon, Koff and binding affinity (Kd).

[3] = target: T2, hOGG1; assay: Biochemical fluorescence assay to measure enzymatic activity of hOGG1 (OGG1/APEX IC50); set-up: Protein His-hOGG1 (12-323) was prepared; His (N); host or cells: E. coli; details: 1 nM OGG1+2 nM APEX+6 nM dsDNA (8-oxo-dG substrate); pH 7.5; RT 40 min; read-out: OGG1/APEX IC50
Procedure, shortened: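 Coupled glycosylase/AP-endonuclease read-out: 8-oxo-dG-containing dsDNA (6 nM) cleaved by 1 nM His-hOGG1 (12-323) plus 2 nM APEX1 over 40 min at room temperature, after 20 min enzyme–compound preincubation; buffer 20 mM Tris pH 7.5, 100 mM KCl, 0.1% BSA, 0.01% Tween. IC50 comes from sigmoidal 3-parameter fitting of % inhibition derived from TAMRA signal.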

T1 sequence (O15527 whole entry): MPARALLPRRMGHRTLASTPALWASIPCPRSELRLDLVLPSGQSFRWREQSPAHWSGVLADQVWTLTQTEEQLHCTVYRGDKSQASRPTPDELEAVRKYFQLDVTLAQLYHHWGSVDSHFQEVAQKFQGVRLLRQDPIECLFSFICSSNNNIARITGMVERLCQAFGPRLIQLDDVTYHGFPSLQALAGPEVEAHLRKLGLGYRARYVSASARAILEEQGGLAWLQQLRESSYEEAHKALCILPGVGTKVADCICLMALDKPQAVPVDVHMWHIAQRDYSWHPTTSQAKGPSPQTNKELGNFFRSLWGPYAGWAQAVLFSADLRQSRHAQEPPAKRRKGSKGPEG

| Structure (SMILES) | ΔTm at 10 µM [1] [°C] | Kd [2] [nM] | IC50 [3] [nM] |
| --- | --- | --- | --- |
| Cc1cc(NCCN(C)C)cc2c1CN([C@H]1CC[C@@H](C(=O)Nc3cc4ccccc4[nH]3)CC1)C2=O [Example 271, (1s,4s)-4-(6-(2-(dimethylamino)ethylamino)-4-methyl-1-oxoisoindolin-2-yl)-N-(1H-indol-2-yl)cyclohexanecarboxamide] | – | 10 to 100 | < 100 |
| Cc1cc(NCCN(C)C)cc2c1CN([C@H]1CC[C@@H](C(=O)Nc3cc4ccccc4[nH]3)CC1)C2=O [Example 132, (1s,4s)-4-(6-((2-(Dimethylamino)ethyl)amino)-4-methyl-1-oxoisoindolin-2-yl)-N-(1H-indol-2-yl)cyclohexane-1-carboxamide] | > 10 | – | – |

Second part, the molecule after the results:

| ΔTm at 10 µM [1] [°C] | Kd [2] [nM] | IC50 [3] [nM] | Structure (SMILES) |
| --- | --- | --- | --- |
| ≤ 6 | > 1000 | – | COc1cc(NC(=O)[C@]2(C)CC[C@@H](N3Cc4c(C)ccc(OC)c4NC3=O)CC2)ccc1C [Example 12, (1r,4r)-N-(3-Methoxy-4-methylphenyl)-4-(8-methoxy-5-methyl-2-oxo-1,2-dihydroquinazolin-3(4H)-yl)-1-methylcyclohexanecarboxamide] |
| ≤ 6 | > 1000 | – | COc1ccc(NC(=O)[C@]2(C)CC[C@@H](N3Cc4c(C)ccc(OC)c4NC3=O)CC2)cc1Cl (single isomer, unassigned) [Example 6, (1r,4r)-N-(3-Chloro-4-methoxyphenyl)-4-(8-methoxy-5-methyl-2-oxo-1,2-dihydroquinazolin-3(4H)-yl)-1-methylcyclohexanecarboxamide] |
| ≤ 6 | > 1000 | – | COc1ccc(NC(=O)[C@]2(C)CC[C@@H](N3Cc4c(C)ccc(OC)c4NC3=O)CC2)cc1C#N (single isomer, unassigned) [Example 8, (1r,4r)-N-(3-cyano-4-methoxyphenyl)-4-(8-methoxy-5-methyl-2-oxo-1,2-dihydroquinazolin-3(4H)-yl)-1-methylcyclohexanecarboxamide] |
| ≤ 6 | > 1000 | – | COc1ccc(NC(=O)[C@]2(C)CC[C@@H](N3Cc4c(C)ccc(OC)c4NC3=O)CC2)cc1C (single isomer, unassigned) [Example 10, (1r,4r)-N-(3-methyl-4-methoxyphenyl)-4-(8-methoxy-5-methyl-2-oxo-1,2-dihydroquinazolin-3(4H)-yl)-1-methylcyclohexanecarboxamide] |

Reference: patent publication US20260317356A1, “SMALL MOLECULE MODULATORS OF OGG1” (AZKARRA THERAPEUTICS, INC., priority 2023, published 2026)
